Test systems include A498; OVCAR-4; EKVX; NCI-H522; HOP-62; RPMI-8226; Hs-578T; UACC-257; NCI-H23; SW-620; COLO 205; M14; SK-MEL-28; HL-60; A549; UO-31; PC-3; HOP-92; HCC 2998; RXF 393.
Common to all, as to experiment: inhibition of tumour cell growth, NCI panel, 48 h

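Compound exposure: 48 hours, 5 concentrations, 96-well plates. GI50 is the concentration that inhibits growth by half.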 Calls of active or inactive are those of the source. No stated cut-off is given here; in the data, active = GI50 up to about 1.1 µM and inactive = higher. Numbered stars: 1 amine (or outer) side, 2 acyl side, 3 side chain; on linkers, the order of the positions; unused ones are H or OH. Bridge positions count the residues as written; N and C are the ends. Square brackets hold non-standard residues; d marks the D form. Peptide text beside a SMILES is read from it. I, II: the chains in the order shown. Actinocin(9to1) = Cc1c2oc3c(C)ccc(C(=O)[*:1])c3nc-2c(C(=O)[*:2])c(N)c1=O; NMeH = CN[CH](Cc1c[nH]cn1)C(=O)O; Sar = CNCC(=O)O

The values below come from ChEMBL document CHEMBL1201862, “PubChem BioAssay data set” (2004).

Turning to `Cn1c2cc(Cl)ccc2c2ccc3c(c21)C(=O)C=CC3=O`, the GI50 in the assay with A498 is 68.7 µM (inactive); with OVCAR-4, 20.7 µM (inactive); in the assay with EKVX, > 71.4 µM (inactive); in the assay on NCI-H522, 8.13 µM (inactive); with HOP-62, > 100 µM (inactive); in the assay on RPMI-8226, 5.57 µM (inactive). The GI50 is 46.9 µM (inactive) in the assay on Hs-578T; 26.4 µM (inactive) in the assay on UACC-257; 20 µM (inactive) in the assay with NCI-H23; 4.4 µM (inactive) in the assay with SW-620; 13.8 µM (inactive) in the assay on COLO 205; 23.7 µM (inactive) in the assay on M14. Further, the GI50 with SK-MEL-28 is 25.3 µM (inactive); in the assay with HL-60 it was 13.5 µM (inactive); with A549, > 100 µM (inactive); in the assay on UO-31, 45.7 µM (inactive); in the assay on PC-3, 25.8 µM (inactive); in the assay on HOP-92 it was 19 µM (inactive). Further, the GI50 in the assay on HCC 2998 was > 100 µM (inactive); in the assay on RXF 393, 21.1 µM (inactive).

With `Nc1nc(Cl)cc(NCC2(CO)CC(Cc3ccccc3)C2)n1` (stereo not given), the GI50 in the assay with A498 is 10.1 µM (inactive); with OVCAR-4 it was 24.2 µM (inactive); in the assay on EKVX it was 3.35 µM (inactive); in the assay with NCI-H522 it was 36.4 µM (inactive); in the assay with HOP-62, > 66.5 µM (inactive); in the assay with RPMI-8226 it was 15 µM (inactive). Further, the GI50 in the assay on Hs-578T was 38.7 µM (inactive); in the assay with UACC-257, 31.5 µM (inactive); with NCI-H23, 34.4 µM (inactive); in the assay with SW-620, > 65.6 µM (inactive); in the assay on COLO 205, 29.8 µM (inactive); in the assay with M14, 16.2 µM (inactive). Besides, the GI50 in the assay with SK-MEL-28 is 60.4 µM (inactive); in the assay with HL-60 it was 4.71 µM (inactive); with A549, 19.1 µM (inactive); with UO-31, 23.4 µM (inactive); in the assay on PC-3 it was 30.6 µM (inactive); in the assay with HOP-92 it was 36.6 µM (inactive). The GI50 with HCC 2998 was 30.7 µM (inactive); in the assay with RXF 393 it was 20.4 µM (inactive).

For the compound `CC1(C)OC(=S)N(c2ccccc2)C12C=Cc1ccccc1O2` (stereo not given), the GI50 in the assay on A498 was > 100 µM (inactive); with OVCAR-4, 33.4 µM (inactive); in the assay on EKVX, 53.5 µM (inactive); in the assay on NCI-H522, 20.2 µM (inactive); in the assay with HOP-62 it was > 100 µM (inactive); in the assay on RPMI-8226, 24.8 µM (inactive). For the same compound, the GI50 in the assay with Hs-578T is > 100 µM (inactive); in the assay with UACC-257 it was 42.1 µM (inactive); with NCI-H23, 41 µM (inactive); in the assay on SW-620, 72.3 µM (inactive); with COLO 205, 63.4 µM (inactive); with M14, 90.6 µM (inactive). Further, the GI50 in the assay on SK-MEL-28 was > 100 µM (inactive); with HL-60, 8.59 µM (inactive); in the assay on A549, > 100 µM (inactive); in the assay with UO-31 it was 45.6 µM (inactive); with PC-3, 41.7 µM (inactive); in the assay on HOP-92 it was 88.3 µM (inactive). The GI50 in the assay on HCC 2998 and in the assay on RXF 393 was > 100 µM (inactive) each time.

In the case of `O=C1/C(=N\NC(=S)NC2CCCCC2)c2cc([N+](=O)[O-])ccc2N1CN1CCOCC1`, the GI50 with A498 was 4.8 µM (inactive); with OVCAR-4, 4.62 µM (inactive); in the assay with EKVX it was 3.13 µM (inactive); in the assay on NCI-H522, 10 µM (inactive); in the assay on HOP-62, 10.3 µM (inactive); in the assay on RPMI-8226, 11.3 µM (inactive). Further, the GI50 in the assay with Hs-578T is 15 µM (inactive); with UACC-257 it was 10.5 µM (inactive); with NCI-H23 it was 5.93 µM (inactive); with SW-620 it was 6.25 µM (inactive); in the assay on COLO 205, 5.32 µM (inactive); in the assay on M14, 9.53 µM (inactive). Also, the GI50 is 10.9 µM (inactive) in the assay with SK-MEL-28; 3.32 µM (inactive) in the assay on HL-60; 4.05 µM (inactive) in the assay with A549; 6.31 µM (inactive) with UO-31; 4.7 µM (inactive) in the assay on PC-3; 1.96 µM (inactive) in the assay on HOP-92. Also, the GI50 in the assay with HCC 2998 is 4.93 µM (inactive); with RXF 393 it was 12.4 µM (inactive).

`CO/C(N)=C(C#N)/N=C/c1ccccc1`: the GI50 is > 100 µM (inactive) in the assay with A498; 71 µM (inactive) with OVCAR-4; 66.7 µM (inactive) with EKVX; > 100 µM (inactive) in the assay on NCI-H522; > 100 µM (inactive) with HOP-62; > 100 µM (inactive) in the assay on RPMI-8226. Besides, the GI50 is > 100 µM (inactive) with Hs-578T; > 100 µM (inactive) in the assay with UACC-257; > 100 µM (inactive) in the assay with NCI-H23; > 100 µM (inactive) in the assay on SW-620; 71.9 µM (inactive) in the assay with COLO 205; 79.6 µM (inactive) in the assay on M14. Further, the GI50 in the assay with SK-MEL-28 is > 100 µM (inactive); in the assay with HL-60, 35.7 µM (inactive); with A549, > 100 µM (inactive); in the assay on UO-31 it was 89.5 µM (inactive); with PC-3, > 100 µM (inactive); in the assay with HOP-92, > 100 µM (inactive). Moreover, the GI50 in the assay on HCC 2998 and in the assay on RXF 393 was > 100 µM (inactive) throughout.

For `CN(C)CCCNc1ccnc2cccc([N+](=O)[O-])c12`, the GI50 is 15.5 µM (inactive) in the assay with A498; 6.18 µM (inactive) in the assay on OVCAR-4; 13.6 µM (inactive) in the assay on EKVX; 7.96 µM (inactive) with NCI-H522; 18.1 µM (inactive) in the assay with HOP-62; 27.3 µM (inactive) with RPMI-8226. The GI50 is 26 µM (inactive) in the assay with Hs-578T; 19.1 µM (inactive) in the assay with UACC-257; 5.9 µM (inactive) in the assay on NCI-H23; 17.2 µM (inactive) in the assay on SW-620; 3.73 µM (inactive) in the assay with COLO 205; 7.05 µM (inactive) in the assay with M14. Besides, the GI50 in the assay with SK-MEL-28 was 14.3 µM (inactive); in the assay on HL-60 it was 26.7 µM (inactive); in the assay on A549, 12.8 µM (inactive); with UO-31, 13.3 µM (inactive); in the assay on PC-3, 14.3 µM (inactive); in the assay on HOP-92 it was 10.6 µM (inactive). Further, the GI50 in the assay with HCC 2998 was 13.3 µM (inactive); in the assay with RXF 393, 25.5 µM (inactive).

Regarding `CC(C)(C)OC(=O)N(CCCN)CCCCN`, the GI50 with A498, in the assay with OVCAR-4, in the assay with EKVX, with NCI-H522, with HOP-62 and in the assay on RPMI-8226 was > 100 µM (inactive) each time. Moreover, the GI50 with Hs-578T, in the assay on UACC-257, in the assay with NCI-H23, in the assay with SW-620, in the assay with COLO 205 and in the assay with M14 was > 100 µM (inactive) in each case. Moreover, the GI50 in the assay with SK-MEL-28, with HL-60, in the assay with A549, in the assay with UO-31, in the assay with PC-3 and in the assay with HOP-92 was > 100 µM (inactive) in each case. Also, the GI50 in the assay with HCC 2998 and in the assay with RXF 393 was > 100 µM (inactive) throughout.

As to `N#CC1=C(N)OC2=C(CCCc3ccc([N+](=O)[O-])cc32)C1c1ccccc1` (stereo not given), the GI50 in the assay with A498 was 2.76 µM (inactive); in the assay on OVCAR-4 it was 6.41 µM (inactive); in the assay with EKVX, 6.19 µM (inactive); in the assay on NCI-H522, 2.14 µM (inactive); in the assay on HOP-62, 4.17 µM (inactive); in the assay on RPMI-8226, 2.9 µM (inactive). Besides, the GI50 with Hs-578T was 15.9 µM (inactive); in the assay with UACC-257, 5.13 µM (inactive); in the assay with NCI-H23, 4.97 µM (inactive); in the assay with SW-620, 3.63 µM (inactive); in the assay on COLO 205, 3.69 µM (inactive); in the assay on M14 it was 3.13 µM (inactive). For the same compound, the GI50 was 5.82 µM (inactive) with SK-MEL-28; 1.64 µM (inactive) in the assay with HL-60; 6.21 µM (inactive) with A549; 8.79 µM (inactive) in the assay on UO-31; 8.3 µM (inactive) in the assay on PC-3; 6.46 µM (inactive) with HOP-92. The GI50 in the assay with HCC 2998 was 2.18 µM (inactive); with RXF 393 it was 4.18 µM (inactive).

Turning to `O=C1/C(=C/c2ccccc2)CCC/C1=C\c1ccc(O)c(CN2CCCCC2)c1`, the GI50 is 5.37 µM (inactive) in the assay on A498; 5.5 µM (inactive) in the assay on OVCAR-4; 6.75 µM (inactive) in the assay on EKVX; 2.24 µM (inactive) in the assay with NCI-H522; 13.5 µM (inactive) with HOP-62; 3.27 µM (inactive) in the assay with RPMI-8226. For the same compound, the GI50 with Hs-578T is 3.93 µM (inactive); in the assay on UACC-257, 5.53 µM (inactive); in the assay with NCI-H23, 3.96 µM (inactive); in the assay on SW-620, 2.39 µM (inactive); with COLO 205, 5.89 µM (inactive); in the assay on M14, 3.26 µM (inactive). Besides, the GI50 in the assay with SK-MEL-28 was 6.92 µM (inactive); in the assay with HL-60 it was 3.49 µM (inactive); in the assay with A549 it was 7.59 µM (inactive); in the assay with UO-31 it was 6.92 µM (inactive); with PC-3 it was 4.56 µM (inactive); in the assay on HOP-92 it was 4.55 µM (inactive). For the same compound, the figures for the GI50 with HCC 2998 and in the assay on RXF 393 were 2.39 µM (inactive) and 13.8 µM (inactive), respectively.

In the case of `Cc1c2oc3c(C)ccc(C(=O)NC4C(=O)NC(C(C)C)C(=O)N5CCCC5C(=O)N(C)CC(=O)N(C)C(Cc5cnc[nH]5)C(=O)OC4C)c3nc-2c(C(=O)NC2C(=O)NC(C(C)C)C(=O)N3CCCC3C(=O)N(C)CC(=O)N(C)C(Cc3cnc[nH]3)C(=O)OC2C)c(N)c1=O` (stereo not given) (I: TVP[Sar][NMeH] / II: TVP[Sar][NMeH]; ester I:1-I:C, II:1-II:C; linker I:N-II:N via Actinocin(9to1); configuration not given here), the GI50 was > 10 µM (inactive) in the assay with A498; > 100 µM (inactive) with OVCAR-4; > 100 µM (inactive) with EKVX; 16.8 µM (inactive) in the assay on NCI-H522; 43.5 µM (inactive) in the assay with HOP-62; 31.6 µM (inactive) in the assay with RPMI-8226. Also, the GI50 in the assay on Hs-578T is 1 µM (active); in the assay on UACC-257, > 100 µM (inactive); in the assay with NCI-H23, 65.5 µM (inactive); in the assay with SW-620, 27.4 µM (inactive); with COLO 205, 31.3 µM (inactive); in the assay with M14, 68.5 µM (inactive). Further, the GI50 was 39.4 µM (inactive) in the assay with SK-MEL-28; 63.7 µM (inactive) in the assay on HL-60; 61.9 µM (inactive) in the assay on A549; 46.8 µM (inactive) with UO-31; 55 µM (inactive) in the assay with PC-3; 40.6 µM (inactive) in the assay on HOP-92. Moreover, the values for the GI50 in the assay on HCC 2998 and in the assay on RXF 393 were 37.8 µM (inactive) and 14.7 µM (inactive), respectively.
